Experimental data reported in patent US8940742B2, “Heterocyclic compounds and uses thereof” (Infinity Pharmaceuticals, Inc., priority 2012, dated 2015).

Legend:
Raw264.7 p110 γ = target: T1, Raw264.7 p110 γ (Mus musculus, UniProt Q9JHG7); assay: Raw264.7 p110 γ cellular assay (phospho-AKT); type: cell-based; details: serum-starved RAW264.7 cells stimulated with C5a
T1 construct: reduction of phospho-AKT in stimulated RAW 264.7 cells; endogenous in cells; host or cells: RAW264.7 macrophages
Excerpt: (b) PI3K-γ Selective Assay
Briefly, serum-starved PAW264.7 cells are stimulated with a known GPCR agonist C5a. […] Cells can be treated with test compounds prior to, simultaneously with, or subsequent to the stimulation by C5a. RAW 264.7 cells respond to the complement component fragment C5a through activation of the C5a receptor, and the C5a receptor activates macrophages and induces cell migration.

PI3K δ = target: T2, PI3K δ (Homo sapiens, UniProt O00329); assay: PI3-Kinase Promega ADP-Glo Max assay; type: biochemical; details: 20 nM kinase, 3 mM ATP, 500 uM diC8-PtdInsP
T2 construct: purchased Millipore
Method in brief: (§1)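 Human class I PI3K (20 nM α or δ, 40 nM β) pre-incubated 15 min with compound in HEPES pH 7.4 buffer with MgCl2, then reacted 2 h at room temperature with 3 mM ATP and 500 uM diC8-PtdInsP. ADP measured by ADP-Glo Max luminescence; % inhibition fitted to 4-parameter logistic for IC50.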

PI3K α = target: T3, PI3K α (Homo sapiens, UniProt P42336); assay: PI3-Kinase Promega ADP-Glo Max assay; type: biochemical; details: 20 nM kinase, 3 mM ATP, 500 uM diC8-PtdInsP
T3 construct: purchased Millipore
Method in brief: as §1

PI3K β = target: T4, PI3K β (Homo sapiens, UniProt P42338); assay: PI3-Kinase Promega ADP-Glo Max assay; type: biochemical; details: 40 nM kinase, 3 mM ATP, 500 uM diC8-PtdInsP
T4 construct: purchased Millipore
Method in brief: as §1

PI3K γ = target: T5, PI3K γ (Homo sapiens, UniProt P48736); assay: PI3-Kinase Promega ADP-Glo Max assay; type: biochemical; details: 40 nM kinase, 3 mM ATP, 500 uM diC8-PtdInsP
T5 construct: purchased Millipore
Method in brief: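 Human class I PI3K reactions ran 2 hours at room temperature, followed by stop solution (40 min) and detection mix (1 hour) before luminescence reading.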

RAJI p110 δ = RAJI p110 δ (Homo sapiens, UniProt O00329); assay: RAJI p110 δ cellular assay (phospho-AKT);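 note: potency based on lowered phosphorylated AKT in RAJI cells, as a readout of PI3K-δ dependent B-cell receptor signaling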
Excerpt: (a) PI3K-δ Selective Assay
Reduction of phospho-AKT is indicative of compounds that may inhibit B-cell proliferation and function in certain diseases.

T1 sequence (Q9JHG7 whole entry): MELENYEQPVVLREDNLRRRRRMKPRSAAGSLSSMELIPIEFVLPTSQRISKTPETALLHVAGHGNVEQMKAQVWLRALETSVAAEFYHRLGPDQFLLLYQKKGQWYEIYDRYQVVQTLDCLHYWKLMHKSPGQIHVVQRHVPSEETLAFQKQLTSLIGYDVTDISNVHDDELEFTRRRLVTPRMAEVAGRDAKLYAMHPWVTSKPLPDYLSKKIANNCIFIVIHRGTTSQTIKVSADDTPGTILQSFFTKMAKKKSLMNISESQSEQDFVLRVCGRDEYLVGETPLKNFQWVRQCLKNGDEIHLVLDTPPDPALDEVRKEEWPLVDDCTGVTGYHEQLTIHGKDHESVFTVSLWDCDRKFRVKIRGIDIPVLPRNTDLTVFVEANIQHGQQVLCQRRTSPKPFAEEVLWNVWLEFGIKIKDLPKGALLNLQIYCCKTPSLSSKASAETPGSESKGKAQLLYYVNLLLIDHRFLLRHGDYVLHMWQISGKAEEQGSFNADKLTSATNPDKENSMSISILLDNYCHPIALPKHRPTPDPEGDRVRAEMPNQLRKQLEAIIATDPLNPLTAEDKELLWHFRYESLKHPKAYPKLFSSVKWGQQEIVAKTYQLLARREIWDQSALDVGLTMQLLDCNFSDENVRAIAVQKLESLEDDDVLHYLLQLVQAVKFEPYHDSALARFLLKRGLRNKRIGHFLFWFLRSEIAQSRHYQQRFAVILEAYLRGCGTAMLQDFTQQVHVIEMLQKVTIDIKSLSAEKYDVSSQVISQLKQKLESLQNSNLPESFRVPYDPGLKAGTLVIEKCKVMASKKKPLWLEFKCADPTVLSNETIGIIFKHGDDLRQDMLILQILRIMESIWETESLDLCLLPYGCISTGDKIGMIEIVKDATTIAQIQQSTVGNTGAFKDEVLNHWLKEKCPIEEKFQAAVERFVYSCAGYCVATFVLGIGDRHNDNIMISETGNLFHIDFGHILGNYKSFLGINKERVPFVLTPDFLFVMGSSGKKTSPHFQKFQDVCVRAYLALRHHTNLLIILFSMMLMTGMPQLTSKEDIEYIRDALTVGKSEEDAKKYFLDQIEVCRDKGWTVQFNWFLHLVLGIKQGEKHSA
T3 sequence (P42336 whole entry): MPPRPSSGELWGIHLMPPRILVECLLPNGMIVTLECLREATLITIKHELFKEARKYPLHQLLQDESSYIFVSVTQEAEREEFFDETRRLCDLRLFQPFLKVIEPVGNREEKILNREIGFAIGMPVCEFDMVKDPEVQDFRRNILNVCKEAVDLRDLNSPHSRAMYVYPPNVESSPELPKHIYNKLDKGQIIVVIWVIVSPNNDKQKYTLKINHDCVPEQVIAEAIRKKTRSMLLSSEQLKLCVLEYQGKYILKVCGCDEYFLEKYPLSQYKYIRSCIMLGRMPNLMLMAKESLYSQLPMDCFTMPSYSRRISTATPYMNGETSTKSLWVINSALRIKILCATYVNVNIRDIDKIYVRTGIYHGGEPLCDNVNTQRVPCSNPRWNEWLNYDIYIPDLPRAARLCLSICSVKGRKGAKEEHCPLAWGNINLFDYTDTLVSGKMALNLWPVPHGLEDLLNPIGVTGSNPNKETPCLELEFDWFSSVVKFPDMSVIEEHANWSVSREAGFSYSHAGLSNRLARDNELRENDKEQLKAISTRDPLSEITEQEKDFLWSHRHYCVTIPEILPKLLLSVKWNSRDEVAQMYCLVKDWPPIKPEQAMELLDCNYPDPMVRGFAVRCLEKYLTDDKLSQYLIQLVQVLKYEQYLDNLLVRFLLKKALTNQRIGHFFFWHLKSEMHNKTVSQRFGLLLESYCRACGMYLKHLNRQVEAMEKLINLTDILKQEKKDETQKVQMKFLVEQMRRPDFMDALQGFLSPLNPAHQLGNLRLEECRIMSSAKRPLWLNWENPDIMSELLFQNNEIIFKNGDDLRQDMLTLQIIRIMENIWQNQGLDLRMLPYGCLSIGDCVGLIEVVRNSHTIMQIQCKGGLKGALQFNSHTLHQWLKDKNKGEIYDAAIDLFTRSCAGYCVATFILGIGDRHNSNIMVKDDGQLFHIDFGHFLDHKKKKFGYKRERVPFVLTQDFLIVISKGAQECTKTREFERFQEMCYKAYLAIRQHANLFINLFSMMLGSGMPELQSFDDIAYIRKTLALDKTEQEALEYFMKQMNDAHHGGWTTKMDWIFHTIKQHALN
T3 sequence (P27986 whole entry partner): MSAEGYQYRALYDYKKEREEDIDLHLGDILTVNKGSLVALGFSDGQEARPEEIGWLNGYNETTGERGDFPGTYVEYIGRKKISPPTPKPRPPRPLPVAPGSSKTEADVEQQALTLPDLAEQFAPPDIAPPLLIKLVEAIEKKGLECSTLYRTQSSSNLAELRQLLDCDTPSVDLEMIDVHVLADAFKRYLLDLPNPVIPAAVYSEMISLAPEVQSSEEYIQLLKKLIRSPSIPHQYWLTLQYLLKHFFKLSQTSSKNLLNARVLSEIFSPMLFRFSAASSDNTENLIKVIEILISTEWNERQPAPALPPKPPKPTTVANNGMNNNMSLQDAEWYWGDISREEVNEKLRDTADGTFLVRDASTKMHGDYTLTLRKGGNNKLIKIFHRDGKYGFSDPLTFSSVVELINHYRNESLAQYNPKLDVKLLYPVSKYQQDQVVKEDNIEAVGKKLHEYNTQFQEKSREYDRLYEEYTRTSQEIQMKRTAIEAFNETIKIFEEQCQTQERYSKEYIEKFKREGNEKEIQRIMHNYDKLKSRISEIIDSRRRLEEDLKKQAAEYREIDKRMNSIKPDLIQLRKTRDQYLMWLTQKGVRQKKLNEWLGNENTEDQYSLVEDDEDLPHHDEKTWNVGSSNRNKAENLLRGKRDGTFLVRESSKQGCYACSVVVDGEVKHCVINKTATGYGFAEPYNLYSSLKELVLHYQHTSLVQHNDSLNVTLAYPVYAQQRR
T5 sequence (P48736 whole entry): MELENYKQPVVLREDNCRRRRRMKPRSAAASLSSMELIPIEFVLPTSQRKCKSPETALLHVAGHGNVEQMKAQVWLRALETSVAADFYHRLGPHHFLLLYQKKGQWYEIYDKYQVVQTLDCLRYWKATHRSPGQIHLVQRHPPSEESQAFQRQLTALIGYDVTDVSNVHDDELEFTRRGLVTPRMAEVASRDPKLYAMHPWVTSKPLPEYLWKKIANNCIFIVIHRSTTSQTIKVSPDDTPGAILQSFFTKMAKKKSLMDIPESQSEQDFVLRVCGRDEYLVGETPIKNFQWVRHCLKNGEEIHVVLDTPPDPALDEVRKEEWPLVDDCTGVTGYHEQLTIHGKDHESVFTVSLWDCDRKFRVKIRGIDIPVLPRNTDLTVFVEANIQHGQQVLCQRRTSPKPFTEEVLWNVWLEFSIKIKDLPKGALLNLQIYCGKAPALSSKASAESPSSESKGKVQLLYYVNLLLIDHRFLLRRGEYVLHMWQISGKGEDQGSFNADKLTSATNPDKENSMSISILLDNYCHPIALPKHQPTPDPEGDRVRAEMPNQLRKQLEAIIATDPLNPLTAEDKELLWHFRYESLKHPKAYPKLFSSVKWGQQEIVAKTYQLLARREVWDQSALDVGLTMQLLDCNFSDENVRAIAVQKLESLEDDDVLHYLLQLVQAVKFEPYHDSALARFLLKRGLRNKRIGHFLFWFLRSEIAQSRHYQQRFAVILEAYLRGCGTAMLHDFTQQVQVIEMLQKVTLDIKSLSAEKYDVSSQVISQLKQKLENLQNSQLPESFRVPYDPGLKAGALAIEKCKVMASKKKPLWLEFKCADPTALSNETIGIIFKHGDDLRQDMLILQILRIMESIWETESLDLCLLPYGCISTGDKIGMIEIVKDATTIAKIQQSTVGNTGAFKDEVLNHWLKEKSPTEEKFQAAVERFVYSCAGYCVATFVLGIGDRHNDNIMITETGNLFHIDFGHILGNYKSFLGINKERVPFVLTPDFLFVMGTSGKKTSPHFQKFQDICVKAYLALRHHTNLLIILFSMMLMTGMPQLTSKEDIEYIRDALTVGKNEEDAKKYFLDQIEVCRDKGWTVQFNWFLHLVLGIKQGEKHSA
T4 sequence (P42338 whole entry): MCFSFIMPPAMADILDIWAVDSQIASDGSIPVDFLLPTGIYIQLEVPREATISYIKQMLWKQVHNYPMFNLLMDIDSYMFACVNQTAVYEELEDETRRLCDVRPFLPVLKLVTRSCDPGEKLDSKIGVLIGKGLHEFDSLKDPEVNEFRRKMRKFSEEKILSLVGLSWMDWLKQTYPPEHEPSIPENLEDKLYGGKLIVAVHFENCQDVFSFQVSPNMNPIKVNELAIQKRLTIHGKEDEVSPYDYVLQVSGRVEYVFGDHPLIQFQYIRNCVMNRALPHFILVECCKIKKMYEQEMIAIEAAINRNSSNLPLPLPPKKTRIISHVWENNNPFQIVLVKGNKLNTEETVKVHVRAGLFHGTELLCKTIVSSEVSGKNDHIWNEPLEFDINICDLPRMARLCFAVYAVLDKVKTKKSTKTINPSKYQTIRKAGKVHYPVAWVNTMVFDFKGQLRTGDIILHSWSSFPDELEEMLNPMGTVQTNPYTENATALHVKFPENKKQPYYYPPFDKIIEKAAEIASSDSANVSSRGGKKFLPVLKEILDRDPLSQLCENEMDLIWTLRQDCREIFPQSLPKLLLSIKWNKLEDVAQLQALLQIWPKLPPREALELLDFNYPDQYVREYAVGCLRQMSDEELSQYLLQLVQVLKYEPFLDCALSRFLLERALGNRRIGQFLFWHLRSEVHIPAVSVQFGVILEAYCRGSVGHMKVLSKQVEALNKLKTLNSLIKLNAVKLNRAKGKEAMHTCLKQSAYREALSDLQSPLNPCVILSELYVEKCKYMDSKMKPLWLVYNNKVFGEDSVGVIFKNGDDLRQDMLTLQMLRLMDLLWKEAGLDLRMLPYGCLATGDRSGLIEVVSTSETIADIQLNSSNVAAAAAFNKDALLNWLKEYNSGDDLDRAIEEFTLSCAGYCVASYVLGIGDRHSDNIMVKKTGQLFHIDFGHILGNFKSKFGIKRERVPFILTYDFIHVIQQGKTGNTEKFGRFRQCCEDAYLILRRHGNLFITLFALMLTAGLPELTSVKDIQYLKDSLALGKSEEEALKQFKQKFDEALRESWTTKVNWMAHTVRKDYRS
T4 sequence (P27986 whole entry partner): as the sequence (P27986 whole entry partner) above

Row | SMILES | IC50 (Raw264.7 p110 γ) | IC50 (PI3K δ) | IC50 (PI3K α) | IC50 (PI3K β) | IC50 (PI3K γ) | IC50 (RAJI p110 δ)
1 | C[C@H](NC(=O)c1c(N)nn2cccnc12)c1cc2cccc(-c3ccccc3)c2c(=O)n1-c1ccccc1 [Compound 115] | < 0.1 µM | 1 to 10 µM | 1 to 10 µM | > 10 µM | 0.1 to 1 µM | 0.1 to 1 µM
2 | COc1cc(-c2cccc3cc([C@H](C)NC(=O)c4c(N)nn5cccnc45)n(-c4ccccc4)c(=O)c23)ccn1 [Compound 116] | < 0.1 µM | 1 to 10 µM | 1 to 10 µM | 1 to 10 µM | 0.1 to 1 µM | < 0.1 µM
3 | C[C@H](NC(=O)c1c(N)nn2cccnc12)c1cc2cccc(-c3ccncc3)c2c(=O)n1-c1ccccc1 [Compound 117] | < 0.1 µM | 1 to 10 µM | 1 to 10 µM | > 10 µM | 0.1 to 1 µM | < 0.1 µM
4 | C[C@H](NC(=O)c1c(N)nn2cccnc12)c1cc2cccc(-c3cccnc3)c2c(=O)n1-c1ccccc1 [Compound 118] | < 0.1 µM | 0.1 to 1 µM | 1 to 10 µM | > 10 µM | 0.1 to 1 µM | < 0.1 µM
5 | COc1cncc(-c2cccc3cc([C@H](C)NC(=O)c4c(N)nn5cccnc45)n(-c4ccccc4)c(=O)c23)c1 [Compound 119] | < 0.1 µM | 0.1 to 1 µM | 1 to 10 µM | > 10 µM | < 0.1 µM | < 0.1 µM
6 | C[C@H](NC(=O)c1c(N)nn2cccnc12)c1cc2cccc(-c3cncc(NS(C)(=O)=O)c3)c2c(=O)n1-c1ccccc1 [Compound 120] | 0.1 to 1 µM | 0.1 to 1 µM | 1 to 10 µM | > 10 µM | 0.1 to 1 µM | < 0.1 µM
7 | C[C@H](NC(=O)c1c(N)nn2cccnc12)c1cc2cccc(-c3ccc(=O)n(C)c3)c2c(=O)n1-c1ccccc1 [Compound 121] | < 0.1 µM | 0.1 to 1 µM | > 10 µM | > 10 µM | < 0.1 µM | < 0.1 µM
8 | Cc1cccc2cc([C@H](C)NC(=O)c3c(N)nn4cccnc34)n(-c3ccccc3)c(=O)c12 [Compound 123] | < 0.1 µM | 1 to 10 µM | 1 to 10 µM | 1 to 10 µM | 0.1 to 1 µM | < 0.1 µM
9 | C[C@H](NC(=O)c1c(N)nn2ccc(-c3cccc(S(C)(=O)=O)c3)nc12)c1cc2cccc(Cl)c2c(=O)n1-c1ccccc1 [Compound 127] | < 0.1 µM | < 0.1 µM | < 0.1 µM | < 0.1 µM | < 0.1 µM | < 0.1 µM
10 | COc1ncc(-c2cccc3cc([C@H](C)NC(=O)c4c(N)nn5cccnc45)n(-c4ccccc4)c(=O)c23)cn1 [Compound 128] | < 0.1 µM | 1 to 10 µM | 1 to 10 µM | 1 to 10 µM | 0.1 to 1 µM | < 0.1 µM
11 | C[C@H](NC(=O)c1c(N)nn2cccnc12)c1cc2cccc(O)c2c(=O)n1-c1ccccc1 [Compound 132] | < 0.1 µM | > 10 µM | > 10 µM | 1 to 10 µM | 1 to 10 µM | 0.1 to 1 µM
12 | C[C@H](NC(=O)c1c(N)nn2cccnc12)c1cc2ccccc2c(=O)n1-c1ccccc1 [Compound 133] | < 0.1 µM | 1 to 10 µM | > 10 µM | 1 to 10 µM | 0.1 to 1 µM | 0.1 to 1 µM
13 | C[C@H](NC(=O)c1c(N)ncc2cccnc12)c1cc2cccc(Cl)c2c(=O)n1-c1ccccc1 [Compound 137] | < 0.1 µM | 0.1 to 1 µM | 1 to 10 µM | 0.1 to 1 µM | 0.1 to 1 µM | < 0.1 µM
14 | CC(C)Oc1cc(-c2cccc3cc([C@H](C)NC(=O)c4c(N)nn5cccnc45)n(-c4ccccc4)c(=O)c23)ccn1 [Compound 138] | < 0.1 µM | 1 to 10 µM | > 10 µM | 1 to 10 µM | 0.1 to 1 µM | < 0.1 µM
15 | COc1cc(-c2cccc3cc([C@H](C)NC(=O)c4ncc(C)nc4N)n(-c4ccccc4)c(=O)c23)ccn1 [Compound 139] | < 0.1 µM | 1 to 10 µM | > 10 µM | > 10 µM | 1 to 10 µM | 0.1 to 1 µM
16 | COc1cc(-c2cccc3cc([C@H](C)NC(=O)c4c(N)ncc5cccnc45)n(-c4ccccc4)c(=O)c23)ccn1 [Compound 140] | < 0.1 µM | 0.1 to 1 µM | 1 to 10 µM | > 10 µM | < 0.1 µM | < 0.1 µM

Row | SMILES | IC50 (Raw264.7 p110 γ) | IC50 (PI3K δ) | IC50 (PI3K α) | IC50 (PI3K β) | IC50 (PI3K γ) | IC50 (RAJI p110 δ)
17 | Cc1ccn2nc(N)c(C(=O)N[C@@H](C)c3cc4cccc(Cl)c4c(=O)n3-c3ccccc3)c2n1 [Compound 142] | < 0.1 µM | 0.1 to 1 µM | 1 to 10 µM | < 0.1 µM | 0.1 to 1 µM | < 0.1 µM
18 | COc1cc(-c2cccc3nc([C@H](C)NC(=O)c4c(N)nn5cccnc45)n(-c4ccccc4)c(=O)c23)ccn1 [Compound 144] | < 0.1 µM | 0.1 to 1 µM | 0.1 to 1 µM | 1 to 10 µM | < 0.1 µM | < 0.1 µM
19 | CC(C)Oc1cc(-c2cccc3nc([C@H](C)NC(=O)c4c(N)nn5cccnc45)n(-c4ccccc4)c(=O)c23)ccn1 [Compound 145] | < 0.1 µM | 1 to 10 µM | > 10 µM | 1 to 10 µM | 1 to 10 µM | < 0.1 µM
20 | COc1cc(-c2cccc3cc([C@H](C)NC(=O)c4c(N)nn5cccnc45)n(C4CC4)c(=O)c23)ccn1 [Compound 150] | < 0.1 µM | 1 to 10 µM | 1 to 10 µM | 1 to 10 µM | 1 to 10 µM | 0.1 to 1 µM
21 | Cc1cc(C)n2nc(N)c(C(=O)N[C@@H](C)c3cc4cccc(Cl)c4c(=O)n3-c3ccccc3)c2n1 [Compound 152] | < 0.1 µM | 1 to 10 µM | 1 to 10 µM | 0.1 to 1 µM | 0.1 to 1 µM | < 0.1 µM
22 | C[C@H](NC(=O)c1c(N)nn2cccnc12)c1cc2cccc(C#CCN)c2c(=O)n1-c1ccccc1 [Compound 153] | 0.1 to 1 µM | 1 to 10 µM | 1 to 10 µM | 1 to 10 µM | 0.1 to 1 µM | 0.1 to 1 µM
23 | C[C@H](NC(=O)c1c(N)nn2cccnc12)c1cc2cccc(C#CCCN)c2c(=O)n1-c1ccccc1 [Compound 154] | 0.1 to 1 µM | 1 to 10 µM | 1 to 10 µM | 1 to 10 µM | 0.1 to 1 µM | 0.1 to 1 µM
24 | C=CC(=O)NCC#Cc1cccc2cc([C@H](C)NC(=O)c3c(N)nn4cccnc34)n(-c3ccccc3)c(=O)c12 [Compound 155] | < 0.1 µM | 0.1 to 1 µM | 1 to 10 µM | 1 to 10 µM | < 0.1 µM | < 0.1 µM
25 | C[C@H](NC(=O)c1c(N)nn2cccnc12)c1cc2cccc(C#CCNC(=O)C3CC(=O)CC(=O)C3)c2c(=O)n1-c1ccccc1 [Compound 156] | 0.1 to 1 µM | 0.1 to 1 µM | 1 to 10 µM | 1 to 10 µM | < 0.1 µM | 1 to 10 µM
26 | C[C@H](NC(=O)c1c(N)nn2cccnc12)c1cc2cccc(C#CCNC(=O)[C@@H]3CCC(=O)O3)c2c(=O)n1-c1ccccc1 [Compound 157] | < 0.1 µM | 0.1 to 1 µM | 0.1 to 1 µM | 0.1 to 1 µM | < 0.1 µM | < 0.1 µM
27 | C[C@H](NC(=O)c1c(N)nn2cccnc12)c1cc2cccc(C#CCNC(=O)[C@H]3CCC(=O)O3)c2c(=O)n1-c1ccccc1 [Compound 158] | < 0.1 µM | 1 to 10 µM | 1 to 10 µM | 1 to 10 µM | < 0.1 µM | < 0.1 µM
28 | C[C@H](NC(=O)c1c(N)nn2cccnc12)c1cc2cccc(C#CCNC(=O)C3CCCCC3)c2c(=O)n1-c1ccccc1 [Compound 159] | < 0.1 µM | 1 to 10 µM | 1 to 10 µM | 1 to 10 µM | 0.1 to 1 µM | < 0.1 µM
29 | C=CC(=O)NCCC#Cc1cccc2cc([C@H](C)NC(=O)c3c(N)nn4cccnc34)n(-c3ccccc3)c(=O)c12 [Compound 160] | < 0.1 µM | 1 to 10 µM | 1 to 10 µM | 1 to 10 µM | 0.1 to 1 µM | < 0.1 µM
30 | C[C@H](NC(=O)c1c(N)nn2cccnc12)c1cc2cccc(C#CCCNC(=O)[C@H]3CCC(=O)O3)c2c(=O)n1-c1ccccc1 [Compound 161] | < 0.1 µM | 1 to 10 µM | 1 to 10 µM | > 10 µM | 0.1 to 1 µM | < 0.1 µM
31 | C[C@H](NC(=O)c1c(N)nn2cccnc12)c1cc2cccc(C#CCNC(=O)C3CCC(=O)C3)c2c(=O)n1-c1ccccc1 (stereo partly drawn) [Compound 162] | < 0.1 µM | 1 to 10 µM | 0.1 to 1 µM | 1 to 10 µM | < 0.1 µM | < 0.1 µM
